The record followed here is patent US12516039B2, “N-linked isoquinoline amides as LRRK2 inhibitors, pharmaceutical compositions, and uses thereof” (Merck Sharp & Dohme LLC, priority 2020, dated 2026).

T1 sequence (Q5S007 970-2527 G2019S limits assumed): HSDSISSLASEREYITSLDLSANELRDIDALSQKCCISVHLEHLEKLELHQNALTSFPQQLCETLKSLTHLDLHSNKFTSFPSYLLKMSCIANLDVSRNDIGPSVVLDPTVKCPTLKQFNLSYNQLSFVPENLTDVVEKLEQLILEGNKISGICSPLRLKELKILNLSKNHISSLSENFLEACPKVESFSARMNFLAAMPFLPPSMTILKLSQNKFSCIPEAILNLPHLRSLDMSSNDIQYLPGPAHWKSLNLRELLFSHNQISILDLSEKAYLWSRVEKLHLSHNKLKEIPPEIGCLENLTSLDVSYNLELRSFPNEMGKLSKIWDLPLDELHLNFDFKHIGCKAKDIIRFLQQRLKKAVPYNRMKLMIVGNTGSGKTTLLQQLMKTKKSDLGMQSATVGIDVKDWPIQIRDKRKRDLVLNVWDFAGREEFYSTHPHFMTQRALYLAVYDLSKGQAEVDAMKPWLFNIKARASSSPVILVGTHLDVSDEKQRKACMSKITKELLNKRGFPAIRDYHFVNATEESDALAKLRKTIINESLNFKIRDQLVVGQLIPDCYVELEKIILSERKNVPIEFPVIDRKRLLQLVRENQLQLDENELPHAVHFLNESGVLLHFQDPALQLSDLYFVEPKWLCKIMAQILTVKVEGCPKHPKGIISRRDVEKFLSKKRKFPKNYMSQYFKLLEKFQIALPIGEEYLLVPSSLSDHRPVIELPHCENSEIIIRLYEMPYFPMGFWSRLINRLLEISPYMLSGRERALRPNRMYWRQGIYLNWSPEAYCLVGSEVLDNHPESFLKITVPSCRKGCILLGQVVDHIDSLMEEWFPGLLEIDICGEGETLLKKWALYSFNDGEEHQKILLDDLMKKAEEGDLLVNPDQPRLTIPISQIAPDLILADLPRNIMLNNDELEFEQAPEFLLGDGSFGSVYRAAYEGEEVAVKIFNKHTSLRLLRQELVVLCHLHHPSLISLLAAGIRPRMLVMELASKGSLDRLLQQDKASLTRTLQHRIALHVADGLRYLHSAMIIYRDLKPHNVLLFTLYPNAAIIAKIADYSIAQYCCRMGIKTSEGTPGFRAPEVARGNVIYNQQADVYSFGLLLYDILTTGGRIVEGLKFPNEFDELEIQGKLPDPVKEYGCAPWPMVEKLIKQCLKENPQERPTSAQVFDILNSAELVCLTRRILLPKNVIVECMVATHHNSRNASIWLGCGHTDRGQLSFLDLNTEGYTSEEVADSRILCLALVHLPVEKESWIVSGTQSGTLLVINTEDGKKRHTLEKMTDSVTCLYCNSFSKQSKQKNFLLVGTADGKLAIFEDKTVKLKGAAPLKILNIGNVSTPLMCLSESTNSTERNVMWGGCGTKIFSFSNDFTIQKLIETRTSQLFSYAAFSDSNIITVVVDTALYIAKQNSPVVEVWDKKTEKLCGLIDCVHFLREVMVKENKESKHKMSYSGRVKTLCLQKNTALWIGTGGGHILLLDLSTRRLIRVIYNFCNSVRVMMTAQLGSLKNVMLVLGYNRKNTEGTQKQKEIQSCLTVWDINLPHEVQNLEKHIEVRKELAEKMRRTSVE

The first assay has as its target T1, GST-tagged truncated human mutant G2019S LRRK2 (Homo sapiens, UniProt Q5S007, G2019S).
T1 construct: GST-tagged truncated human mutant G2019S LRRK2; purchased Life Technologies Corporation (Carlsbad, CA)
Briefly: LRRK2 G2019S Km ATP LanthaScreen assay. The class given is biochemical. Particulars: 134 μM ATP (Km ATP), LRRKtide substrate, mean of several tests. The protocol: Unless otherwise noted, all reactions are magnetically stirred. Unless otherwise noted, when diethyl ether is used in the experiments described below, it is Fisher ACS certified material and is stabilized with BHT. Unless otherwise noted, “concentrated” and/or “solvent removed under reduced pressure” means evaporating the solvent from a solution or mixture using a rotary evaporator or vacuum pump. Unless otherwise noted, flash chromatography is carried out on a Teledyne Isco (Lincoln, NE), Analogix (Burlington, WI), or Biotage (Stockholm, SWE) automated chromatography system using a commercially available cartridge as the column. Columns may be purchased from Teledyne Isco, Analogix, Biotage, Varian (Palo Alto, CA), or Supelco (Bellefonte, PA) and are usually filled with silica gel as the stationary phase. Reverse phase prep-HPLC conditions, where used, can be found at the end of each experimental section. Aqueous solutions were concentrated on a Genevac (Ipswich, ENG) or by freeze-drying/lyophilization. Unless otherwise noted, all LRRK2 pIC50 data presented in tables refers to the LRRK2 G2019S Km ATP LanthaScreen™ assay (Life Technologies Corp., Carlsbad, CA) that is described in the Biological Assay section.
Biological Assay: LRRK2 Km ATP LanthaScreen™ Assay
The LRRK2 kinase activity reported herein as IC50 values was determined with LanthaScreen™ technology from Life Technologies Corporation (Carlsbad, CA) using GST-tagged truncated human mutant G2019S LRRK2 in the presence of the fluorescein-labeled peptide substrate LRRKtide, also from Life Technologies. The data presented for the Km ATP LanthaScreen™ Assay represents mean IC50 values based on several test results and may have reasonable deviations depending on the specific conditions and reagents used. Assays were performed in the presence of 134 μM ATP (Km ATP). Upon completion, the assay was stopped and phosphorylated substrate detected with a terbium (Tb)-labeled anti-pERM antibody (cat. no. PV4898). The compound dose response was prepared by diluting a 10 mM stock of compound to a maximum concentration of 9.99 μM in 100% dimethylsulfoxide followed by custom fold serial dilution in dimethylsulfoxide nine times. Twenty nanoliters of each dilution was spotted via a Labcyte Echo onto a 384-well black-sided plate (Corning 3575) followed by 15 μl of a 1.25 nM enzyme solution in 1× assay buffer (50 mM Tris pH 8.5, 10 mM MgCl2, 0.01% Brij-35, 1 mM EGTA, 2 mM dithiothreitol, 0.05 mM sodium orthovanadate). Following a 15-minute incubation at room temperature, the kinase reaction was started with the addition of 5 μl of 400 nM fluorescein-labeled LRRKtide peptide substrate and 134 μM ATP solution in 1× assay buffer. The reaction was allowed to progress at ambient temperature for 90 minutes. The reaction was then stopped by the addition of 20 μl of TR-FRET Dilution Buffer (Life Technologies, Carlsbad, CA) containing 2 nM Tb-labeled anti-phospho LRRKtide antibody and 10 mM EDTA (Life Technologies, Carlsbad, CA). After an incubation of 1 hour at room temperature, the plate was read on an EnVision multimode plate reader (Perkin Elmer, Waltham, MA) with an excitation wavelength of 337 nm (Laser) and a reading emission at both 520 and 495 nm. Compound IC50s were interpolated from nonlinear regression best fits of the log of the final compound concentration, plotted as a function of the 520/495-nm emission ratio using Activity base. Abase uses a 4 parameter (4P) logistic fit based on the Levenberg-Marquardt algorithm.
For orientation: TR-FRET usually uses a lanthanide donor and a delayed reading to cut background.
Regarding `CC1(N2CCN(c3cc4cc(NC(=O)C5CC56CCOCC6)ncc4cc3C3CC3)CC2)COCC1O` (stereo not drawn) [Ex-6.11], the “LRRK2 pIC50” value is 9.57.
Turning to `CC1(N2CCN(c3cc4cc(NC(=O)C5CCOCC5)ncc4cc3Cl)CC2)COCC1O` (stereo not drawn) [Ex-9.2], the “LRRK2 pIC50” value stood at 8.74.

Staying with this assay, now noted: 134 μM ATP (Km ATP), LRRKtide substrate, mean of several tests, read-out: LRRK2 pIC50 (converted).
For `Cc1cc2cnc(NC(=O)C3CC3c3cnn(C)c3C(F)(F)F)cc2cc1N1CCN(C2(C)CCOC2)CC1` (single isomer, unassigned) [Ex-10.33, (1R,2R or 1S,2S)-N-[7-methyl-6-[4-((R or S)-3-methyltetrahydrofuran-3-yl)piperazin-1-yl]-3-isoquinolyl]-2-[1-methyl-5-(trifluoromethyl)pyrazol-4-yl]cyclopropanecarboxamide], the IC50 was 4.79 nM.
The same measure, in the same setting: for `CC1(N2CCN(c3cc4cc(NC(=O)C5CC56CCOCC6)ncc4cc3Cl)CC2)CCOC1` (single isomer, unassigned) [Ex-5.12] the value was 126 nM; for `Cc1cc2cnc(NC(=O)C3CC3c3cnn(C)c3C(F)(F)F)cc2cc1N1CCN(C2(C)CCOC2)CC1` (single isomer, unassigned) [Ex-10.34, (1R,2R or 1S,2S)-N-[7-methyl-6-[4-((R or S)-3-methyltetrahydrofuran-3-yl)piperazin-1-yl]-3-isoquinolyl]-2-[1-methyl-5-(trifluoromethyl)pyrazol-4-yl]cyclopropanecarboxamide], 69.2 nM.
For `N#CC1(F)CCN(c2cc3cc(NC(=O)C4CC4c4cncnc4)ncc3cc2Cl)CC1` (single isomer, unassigned) [Ex-5.20], the IC50 is 9.12 nM.
For the molecule `CCC1C(C(=O)Nc2cc3cc(N4CCN(C5(C)COCC5F)CC4)c(Cl)cc3cn2)C1c1ccccn1` (single isomer, unassigned) [Ex-10.89, (1R,2R,3R, or 1R,2S,3R, or 1S,2R,3S, or 1S,2S,3S)-N-[7-chloro-6-[4-((3R,4R or 3S,4S)-4-fluoro-3-methyl-tetrahydrofuran-3-yl)piperazin-1-yl]-3-isoquinolyl]-2-ethyl-3-(2-pyridyl)cyclopropanecarboxamide], the IC50 is 0.0813 nM.
Take `CC1(N2CCN(c3cc4cc(NC(=O)C5CC56CCOC6)ncc4cc3Cl)CC2)COCC1O` (single isomer, unassigned) [Ex-2.10, (1R,3R or 1S,3S)-N-(7-chloro-6-(4-((3R,4R or 3S,4S)-4-hydroxy-3-methyltetrahydrofuran-3-yl)piperazin-1-yl)isoquinolin-3-yl)-5-oxaspiro[2.4]heptane-1-carboxamide]: the IC50 is 0.589 nM.
Turning to `CC1(N2CCN(c3cc4cc(NC(=O)C5CC56CC6)ncc4cc3Cl)CC2)COCC1F` (single isomer, unassigned) [Ex-10.79, (R or S)-N-[7-chloro-6-[4-((3R,4R or 3S,4S)-4-fluoro-3-methyl-tetrahydrofuran-3-yl)piperazin-1-yl]-3-isoquinolyl]spiro[2.2]pentane-2-carboxamide], the IC50 is 0.0813 nM.
The same measure, in the same setting: the figure for `C[C@H]1CN(c2cc3cc(NC(=O)C4CC45CCOCC5)ncc3cc2Cl)CCN1C1COCC1O` (single isomer, unassigned) [Ex-2.4, (R or S)-N-{7-chloro-6-[(3S or 3R)-4-(3R,4R or 3S,4S)-4-hydroxyoxolan-3-yl)-3-methylpiperazin-1-yl]isoquinolin-3-yl}-6-oxaspiro[2.5]octane-1-carboxamide] is 0.38 nM.
For the molecule `CC1(N2CCN(c3cc4cc(NC(=O)C5C6COCC65)ncc4cc3Cl)CC2)COCC1O` (single isomer, unassigned) [Ex-1.9, (1R or S)-N-(7-chloro-6-(4-((3R,4R or 3S,4S)-4-hydroxy-3-methyltetrahydrofuran-3-yl)piperazin-1-yl)isoquinolin-3-yl)-3-oxabicyclo[3.1.0]hexane-6-carboxamide], the IC50 is 0.794 nM.
As for `CC1(C2CCOC2)CC1C(=O)Nc1cc2cc(N3CCN(C4(C)COCC4O)CC3)c(Cl)cc2cn1` (single isomer, unassigned) [Ex-10.84, (1R,2R or 1S,2S, or 1R,2S, or 1S,2R)-N-[7-chloro-6-[4-((3R,4R or 3S,4S)-4-hydroxy-3-methyl-tetrahydrofuran-3-yl)piperazin-1-yl]-3-isoquinolyl]-2-methyl-2-tetrahydrofuran-3-yl-cyclopropanecarboxamide], the IC50 was 0.214 nM.
On the same count and under the same terms, the figure for `O=C(Nc1cc2cc(N3CCN(C4COCC4O)CC3)c(Cl)cc2cn1)C1CC12CCOCC2` (single isomer, unassigned) [Ex-2.6, (R or S)-N-(7-chloro-6-(4-((3R,4R or 3S,4S)-4-hydroxytetrahydrofuran-3-yl)piperazin-1-yl)isoquinolin-3-yl)-6-oxaspiro[2.5]octane-1-carboxamide] is 3.09 nM.
Same read-out and setting: the figure for `CC1(N2CCN(c3cc4cc(NC(=O)C5CC56CC6)ncc4cc3Cl)CC2)COCC1O` (single isomer, unassigned) [Ex-2.13, (R or S)-N-(7-chloro-6-(4-((3R,4R or 3S,4S)-4-hydroxy-3-methyltetrahydrofuran-3-yl)piperazin-1-yl)isoquinolin-3-yl)spiro[2.2]pentane-1-carboxamide] is 33.9 nM; for `CC1(N2CCN(c3cc4cc(NC(=O)C5CC5C(F)F)ncc4cc3Cl)CC2)COCC1F` (single isomer, unassigned) [Ex-10.77, (1R,2R or 1S,2S)-N-[7-chloro-6-[4-((3R,4R or 3S,4S)-4-fluoro-3-methyl-tetrahydrofuran-3-yl)piperazin-1-yl]-3-isoquinolyl]-2-(difluoromethyl)cyclopropanecarboxamide] it is 0.0813 nM; for `Cn1ccc(C2CC2C(=O)Nc2cc3cc(N4CCN(C5(C)COCC5F)CC4)c(Cl)cc3cn2)n1` (single isomer, unassigned) [Ex-10.17, (1R,2R or 1S,2S)-N-[7-chloro-6-[4-((3R,4R or 3S,4S)-4-fluoro-3-methyl-tetrahydrofuran-3-yl)piperazin-1-yl]-3-isoquinolyl]-2-(1-methylpyrazol-3-yl)cyclopropanecarboxamide] it is 2.75 nM.
Same read-out and setting: for `CC1(N2CCN(c3cc4cc(NC(=O)C5CCC(F)(F)CO5)ncc4cc3Cl)CC2)COCC1O` (single isomer, unassigned) [Ex-10.2, (2R or 2S)-N-(7-chloro-6-((3R, 4R or 3S, 4S)-4-(4-hydroxy-3-methyltetrahydrofuran-3-yl)piperazin-1-yl)isoquinolin-3-yl)-5,5-difluorotetrahydro-2H-pyran-2-carboxamide] the value was 0.676 nM.
Take `CCC1C(C(=O)Nc2cc3cc(N4CCN(C5(C)CCOC5)CC4)c(C)cc3cn2)C1c1cnn(C)c1` (single isomer, unassigned) [Ex-10.37, (1R,2R,3R, 1R,2S,3R, 1S,2R,3S, or 1S,2S,3S)-2-ethyl-N-[7-methyl-6-[4-((R or S)-3-methyltetrahydrofuran-3-yl)piperazin-4-ium-1-yl]-3-isoquinolyl]-3-(1-methylpyrazol-4-yl)cyclopropanecarboxamide]: the IC50 is 0.0813 nM.
On the same count and under the same terms, the figure for `CC1COC(=O)N1c1ccc2cnc(NC(=O)C3CC3)cc2c1` (single isomer, unassigned) [Ex-4.1, (R or S)-N-(6-(4-methyl-2-oxooxazolidin-3-yl)isoquinolin-3-yl)cyclopropanecarboxamide] is 3.47 nM.
For `CC1(N2CCN(c3cc4cc(NC(=O)C5CC56CCCOC6)ncc4cc3Cl)CC2)COCC1O` (single isomer, unassigned) [Ex-1.15, (1R,3S, or 1R,3R, or 1S,3S, or 1S,3R)-N-(7-chloro-6-(4-((3R,4R or 3S,4S)-4-hydroxy-3-methyltetrahydrofuran-3-yl)piperazin-1-yl)isoquinolin-3-yl)-5-oxaspiro[2.5]octane-1-carboxamide], the IC50 is 46.8 nM.
On to `COC1COCC1(C)N1CCN(c2cc3cc(NC(=O)C4CC45CCOCC5)ncc3cc2Cl)CC1` (single isomer, unassigned) [Ex-5.5], for which the IC50 is 2.63 nM.
